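1) Cells in 96-well plates. 2) Compound, 48 h, 5 concentrations. 3) Linear interpolation between surrounding doses. 4) Unreached endpoint = highest concentration. At the TGI there is no net growth.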
Assays:
Assay in all cases: inhibition of tumour cell growth, NCI panel, 48 h
EKVX NSCLC = tested on: EKVX NSCLC
NCI-H23 lung = tested on: NCI-H23 lung
SF-268 CNS = tested on: SF-268 CNS
SF-539 CNS = tested on: SF-539 CNS
SK-MEL-2 melanoma = tested on: SK-MEL-2 melanoma
UACC-257 melanoma = tested on: UACC-257 melanoma
COLO 205 colon = tested on: COLO 205 colon
NCI-H522 lung = tested on: NCI-H522 lung
RXF 393 renal = tested on: RXF 393 renal
SNB-75 CNS = tested on: SNB-75 CNS
DU-145 prostate = tested on: DU-145 prostate

Compound	TGI (EKVX NSCLC) [µM]	TGI (NCI-H23 lung) [µM]	TGI (SF-268 CNS) [µM]	TGI (SF-539 CNS) [µM]	TGI (SK-MEL-2 melanoma) [µM]	TGI (UACC-257 melanoma) [µM]	TGI (COLO 205 colon) [µM]	TGI (NCI-H522 lung) [µM]	TGI (RXF 393 renal) [µM]	TGI (SNB-75 CNS) [µM]	TGI (DU-145 prostate) [µM]
CCOC(=O)CC[C@@H](NC(=O)c1ccc(N[C@@H]2c3cc4c(cc3C(c3cc(OC)c(O)c(OC)c3)C3C(=O)OC[C@@H]32)OCO4)cc1)C(=O)OCC (some centres undefined)	0.0799	0.0424	0.0686	0.0478	0.235	0.724	–	–	–	–	–
CC(c1cccc2ccccc12)/[N+]([O-])=C/c1ccccc1 (centres undefined)	> 100	> 100	> 100	> 100	> 100	> 100	> 100	> 100	> 100	> 100	–
NC1CC(=O)c2cc(Br)sc21 (centres undefined)	> 100	–	> 100	> 100	> 100	> 100	> 100	–	> 100	> 100	> 100
CC1=NN(C(=O)Cc2ccccc2)C(=O)/C1=C\C=C\c1ccccc1	> 100	> 100	> 100	> 100	> 100	> 100	> 100	> 100	–	> 100	–
COc1ccc2c3ccc4c(c3n(C)c2c1)C(=O)c1ccccc1C4=O	> 100	> 100	> 100	> 100	–	> 100	> 100	> 100	> 100	> 100	–
COC(=O)CC1C(=O)OCc2c1cc1n(c2=O)Cc2c-1nc1ccccc1c2OC (centres undefined)	> 100	97.9	> 100	–	> 100	> 100	> 100	> 100	70.2	> 100	–
CCOP(=O)(OCC)/C(C#N)=C/c1ccco1	> 100	> 100	> 100	> 100	> 100	> 100	> 100	> 100	–	> 100	–
CCC1(N=[N+]=[N-])C(=O)Nc2cc(C)ccc2C1=O (centres undefined)	> 100	> 100	> 100	> 100	> 100	> 100	> 100	15.6	–	> 100	–
COc1ccc(C2C(Cl)C(=O)N2NC(=O)Cc2ccccc2)cc1 (centres undefined)	> 100	> 100	> 100	–	> 100	> 100	> 100	> 100	> 100	> 100	–
CC(C)(C)[C@H]1CO[C@]2(C)[C@@H]3C[C@@H]3C(=O)N12	> 100	> 100	> 100	> 100	> 100	> 100	> 100	> 100	> 100	> 100	–
CNC(=O)CCNC(=O)CCC(=O)OC	–	> 100	> 100	> 100	> 100	–	> 100	–	> 100	–	> 100
COC[n+]1cc2cc(OC)c(OC)cc2c2ccc3cc(OC)c(OC)cc3c21	> 100	> 100	> 100	> 100	> 100	> 100	> 100	> 100	> 100	> 100	–
O=C(c1ccncc1)n1nc(-c2ccccc2)c(N=Nc2ccc([N+](=O)[O-])cc2)c1-c1ccccc1	45.8	> 100	> 100	> 100	> 100	> 100	> 100	> 100	–	> 100	–
CC1NC(/C(=C/c2ccccc2O)NC(=O)c2ccccc2)OC1=O (centres undefined)	> 50	> 50	–	48	> 50	> 50	> 50	> 50	–	> 50	–
Cc1cc(Cl)ccc1N=NC(=O)NNc1ccc(Cl)cc1C	–	29.8	37.5	–	28	33.1	–	35.1	–	33.3	23.3
[N-]=[N+]=NC1C(Br)C(=O)NC(=O)N1[C@H]1C[C@H](O)[C@@H](CO)O1 (some centres undefined)	> 100	> 100	> 100	> 100	> 100	> 100	> 100	> 100	> 100	> 100	–
Cc1cc2oc(=O)[nH]c(=S)c2c(C)c1C	> 100	> 100	> 100	> 100	> 100	> 100	> 100	> 100	> 100	> 100	–
CCN(CC)Cc1cc(Nc2c3ccccc3nc3c2[nH]c2ccccc23)ccc1O	6.32	2.8	–	2.74	2.75	4.45	2.19	2.33	2.77	3.35	–
